Laboratory results from US12479858B2, “Macrocyclic compounds as sting agonists and methods and uses thereof” (Lupin Limited, priority 2019, dated 2025).
Entries after “also recorded” stand apart in the source; their conditions may differ. Counter-ions that a name gives are not always drawn.

How the values were obtained:
[1] = test system: Interferon beta (IFNβ), interleukin-6 (IL-6) and tumor necrosis factor alpha (TNFα); experiment: Serum and tumor cytokine levels in CT26 tumor-bearing mice (ELISA); type: in vivo, BALB/c mice
Procedure: Pharmacokinetic and Pharmacodynamic Profiling and Estimation of Immune Cell Infiltration in Tumors Following Treatment with Compounds 2, 6, 8, 12 and 14
Serum and tumor cytokine levels and corresponding compound concentrations in mouse plasma were determined following single-dose intravenous administration in CT26 (murine colorectal carcinoma) tumor-bearing mice. Briefly, naïve BALB/c mice in the age group of 6-8 weeks were inoculated with 0.1 million CT-26 cells/animal in phosphate buffered saline (PBS), subcutaneously. […] Blood and tumor samples were harvested at various time points up to 24 h post-dose. Tumor samples were homogenized and prepared for cytokine estimation (ELISA) and compound concentration were determined by LC-MS/MS. Serum aliquots and tumor samples were snap-frozen and stored at −80° C. till further analysis. Serum and tumor samples were evaluated for Interferon beta (IFNβ), interleukin-6 (IL-6) and tumor necrosis factor alpha (TNFα) by enzyme linked immunosorbent assay (ELISA) using kits from R & D systems (Quantikine mouse IL-6 and TNFα kits) and PBL biosciences (Verikine mouse IFNβ kit).
Cytokine analysis from mouse serum samples: For IL-6 and TNFα estimation, 50 μL of test samples or internal standard or control were applied to wells in duplicates and incubated for 2 h at room temperature, followed by aspiration and washing four times with 400 μL of wash buffer. 100 μL of mouse IL-6 or TNFα conjugate solution was added and incubated further for 2 h at room temperature and followed later by 4 wash cycles. 100 μL of substrate solution was added to each well with addition of stop solution after 30 min. Optical density was measured at 450 nm averaged and was used for further calculations following subtraction of respective blank controls. Cytokine concentrations were determined by interpolating the optical density of samples into the reference standard curve utilizing four parameter logistic (4-PL) curve-fit. Cytokine concentrations were normalized with their respective dilution factors and represented in pg/mL. For IFNβ estimation, 100 μL test sample or internal standard or controls were applied to the wells in duplicates and incubated for 1 h at room temperature followed by three washes and addition of the anti-mouse IFNβ antibody solution with further 1 h incubation. This was followed by addition of horseradish peroxidase (HRP) solution and three washes, later addition of TMB substrate and reading the optical density at 450 nm. Optical densities were blank-subtracted and interpolated to the reference standard utilizing the four parameter logistic (4-PL) curve-fit. Cytokine concentrations were normalized with their respective dilution factors and represented in pg/mL. Tables 4 and 5 indicate cytokine levels for compounds 2, 6, 8, 12, and 14 in serum and tumor at different administered doses.
Cytokine analysis from tumor samples: Tumor samples were homogenized in a bead-based homogenizer and lysates were prepared with buffer supplemented with 1% Triton X-100 and protease inhibitors. Cytokine levels were estimated by ELISA and expressed as pg/g tumor.

CD3^+CD8^+ T cells = experiment: Estimation of immune cell infiltration in tumors (flow cytometry); type: in vivo, Balb/c mice
Procedure: Estimation of immune cell infiltration in tumors: CT-26 tumor-bearing Balb/c mice were treated intravenously with 0.375 mg/kg of test compounds and blood and tumors were processed for analysis of CD8^+, CD3^+ and CD45^+ T cells at 24 h and 96 h after start of treatment. Blood samples were subjected to RBC lysis and the cells were recovered by centrifugation. Following wash with PBS, the cells were blocked using TruStain FcX™ blocking antibody and stained with fluorophore-tagged anti-CD45, anti-CD3 and anti-CD8 antibodies. Tumor samples were minced and subjected to tissue digestion using freshly prepared collagenase-IV solution (1 mg/ml) containing DNase (0.05 mg/ml) for 1-1.5 h at 37° C. and 150-200 rpm. Single cell suspension was prepared by filtering it through a 100 μm mesh and checked for cell viability. Cells were stained with various antibodies as mentioned above. The distinct T cell subsets were analysed on FACS Canto II (BD) and percentage of each population was calculated after initial gating of CD45^+ lymphocyte population.

Human STING = biological target: T1, Human STING (Homo sapiens, UniProt Q86WV6, G230A/H232R/R293Q/R71H); experiment: Stimulation of human STING signaling in THP1 cell line (THP1-Blue ISG SEAP reporter); type: cell-based; settings: THP1-Blue ISG cells, SEAP activity, 18-20 hours
T1 construct: using human THP1-Blue™ ISG SEAP based reporter cell line (Invivogen); host or cells: THP1-Blue ISG cells (human monocytic THP-1 derived SEAP reporter line)
T1 sequence (Q86WV6 whole entry R71H/G230A/H232R/R293Q): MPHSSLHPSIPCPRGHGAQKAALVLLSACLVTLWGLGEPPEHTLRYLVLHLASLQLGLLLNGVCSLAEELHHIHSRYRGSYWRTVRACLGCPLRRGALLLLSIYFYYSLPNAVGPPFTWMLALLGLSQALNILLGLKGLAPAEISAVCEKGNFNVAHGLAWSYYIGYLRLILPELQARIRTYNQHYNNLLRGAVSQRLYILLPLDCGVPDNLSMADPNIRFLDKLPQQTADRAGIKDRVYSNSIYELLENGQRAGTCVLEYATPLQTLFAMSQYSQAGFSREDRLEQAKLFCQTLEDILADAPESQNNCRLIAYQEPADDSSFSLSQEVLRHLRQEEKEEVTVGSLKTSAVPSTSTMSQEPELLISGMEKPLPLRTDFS
Procedure: Biological Assay—Stimulation of Human STING Signaling in THP1 Cell Line
Compounds were tested for their STING activation potential using human THP1-Blue™ ISG SEAP based reporter cell line (Invivogen). Briefly, THP1-Blue ISG cells (100,000 cells/well) in 96 well plate were treated with varying concentrations of test and reference compounds and incubated at 37° C. with 5% CO2 for 18-20 hours. The control untreated cells were also set up. Post incubation, the cell supernatant was tested for SEAP (Secreted Embryonic Alkaline Phosphatase) activity using the QuantiBlue™ substrate reagent (Invivogen). The formation of blue coloured product was quantified by measuring absorbance at wavelength of 620 nm using PheraStar/Tecan reader. The average of duplicate readouts for each data point was plotted in GraphPad prism 6 against the concentration of test or reference compound to calculate EC50 value. The fold of SEAP induction or increase in luminescence at different data points was estimated against the un-stimulated cell control set.

[2] = Apparent solubility/extended kinetic solubility by UHPLC; type: physicochemical; settings: aqueous buffer, thermodynamic from solid, phosphate buffer, 37° C.
Procedure: Biological Assay—Determination of Apparent Solubility/Extended Kinetic Solubility by UHPLC
Test sample preparation: About 0.5 mg of the test sample was weighed and transferred in duplicate in 1 mL glass inserts of 96 well plates. 5 μL of DMSO and 1 ml of phosphate buffer were added. Allowed for equilibrium in an orbital shaker at 37° C. for 24 hrs. Later, allowed it cool to room temperature and centrifuged the 96 well plate (at 240×10 RPM for 20 min) and supernatant material was taken into collection plate, covered it with the heat resistant aluminum sheet or supernatant material was directly taken into HPLC sample vial.
Injected diluent as blank and linearity solutions in duplicate. Recorded the chromatograms and plotted the calibration curve, concentration (X-axis) versus Area (y-axis). The correlation coefficient for calibration curve should be not less than 0.95. If above criteria passes, then injected the test samples and recorded the chromatograms. In case saturated peaks are observed, then diluted the test sample with diluent as appropriate.
Calculated the slope and intercept of the calibration curve. From the standard curve, determined the solubility of the sample in μM (micromolar).

[3] = 0.375 mg/kg single i.v., 3.5 h (Table 6)
[4] = 0.375 mg/kg single i.v., 8 h (Table 6)
[5] = 0.375 mg/kg single i.v., 12 h (Table 6)
[6] = 0.375 mg/kg single i.v., 24 h (Table 6)

SMILES: CCn1nc(C)cc1C(=O)Nc1nc2cc(C(N)=O)cc3c2n1C/C=C/Cn1c(NC(=O)c2cc(C)nn2CC)nc2cc(C(=O)N[C@H]4CC[C@H](C(=O)O)CC4)cc(c21)OCCCO3 [Compound 2, (1R,4R)-4-((E)-12-carbamoyl-1,15-bis(1-ethyl-3-methyl-1H-pyrazole-5-carboxamido)-8,9,16,19-tetrahydro-7H-6,10-dioxa-2,14,15a,19a-tetraazacyclopentadeca[3,2,1-cd:8,9,10-c′d′]diindene-4-carboxamido)cyclohexane-1-carboxylic acid sodium salt]
- Serum Cytokines IFNβ ([1]; 0.093 mg/kg single i.v., 3.5 h): 446 pg/mL
- Serum Cytokines IL-6 ([1]; 0.093 mg/kg single i.v., 3.5 h): 1323 pg/mL
- Serum Cytokines TNFα ([1]; 0.093 mg/kg single i.v., 3.5 h): 261 pg/mL
- Tumor Cytokines IFNβ ([1]; 0.093 mg/kg single i.v., 3.5 h): 4000 pg/g
- Tumor Cytokines IL-6 ([1]; 0.093 mg/kg single i.v., 3.5 h): 4580 pg/g
- Tumor Cytokines TNFα ([1]; 0.093 mg/kg single i.v., 3.5 h): 2460 pg/g
- Serum Cytokines IFNβ ([1]; 0.093 mg/kg single i.v., 8 h): 64 pg/mL
- Serum Cytokines IL-6 ([1]; 0.093 mg/kg single i.v., 8 h): 662 pg/mL
- Serum Cytokines TNFα ([1]; 0.093 mg/kg single i.v., 8 h): 210 pg/mL
- Tumor Cytokines IFNβ ([1]; 0.093 mg/kg single i.v., 8 h): 955 pg/g
- Tumor Cytokines IL-6 ([1]; 0.093 mg/kg single i.v., 8 h): 1100 pg/g
- Tumor Cytokines TNFα ([1]; 0.093 mg/kg single i.v., 8 h): 637 pg/g
- Serum Cytokines IFNβ ([1]; 0.187 mg/kg single i.v., 3.5 h): 1920 pg/mL
- Serum Cytokines IL-6 ([1]; 0.187 mg/kg single i.v., 3.5 h): 3139 pg/mL
- Serum Cytokines TNFα ([1]; 0.187 mg/kg single i.v., 3.5 h): 574 pg/mL
- Tumor Cytokines IFNβ ([1]; 0.187 mg/kg single i.v., 3.5 h): 4169 pg/g
- Tumor Cytokines IL-6 ([1]; 0.187 mg/kg single i.v., 3.5 h): 4798 pg/g
- Tumor Cytokines TNFα ([1]; 0.187 mg/kg single i.v., 3.5 h): 3201 pg/g
- Serum Cytokines IFNβ ([1]; 0.187 mg/kg single i.v., 8 h): 127 pg/mL
- Serum Cytokines IL-6 ([1]; 0.187 mg/kg single i.v., 8 h): 738 pg/mL
- Serum Cytokines TNFα ([1]; 0.187 mg/kg single i.v., 8 h): 136 pg/mL
- Tumor Cytokines IFNβ ([1]; 0.187 mg/kg single i.v., 8 h): 962 pg/g
- Tumor Cytokines IL-6 ([1]; 0.187 mg/kg single i.v., 8 h): 2244 pg/g
- Tumor Cytokines TNFα ([1]; 0.187 mg/kg single i.v., 8 h): 531 pg/g
- Serum Cytokines IFNβ ([1]; 0.375 mg/kg single i.v., 3.5 h): 8540 pg/mL
- Serum Cytokines IL-6 ([1]; 0.375 mg/kg single i.v., 3.5 h): 6014 pg/mL
- Serum Cytokines TNFα ([1]; 0.375 mg/kg single i.v., 3.5 h): 1242 pg/mL
- Tumor Cytokines IFNβ ([1]; 0.375 mg/kg single i.v., 3.5 h): 8044 pg/g
- Tumor Cytokines IL-6 ([1]; 0.375 mg/kg single i.v., 3.5 h): 8103 pg/g
- Tumor Cytokines TNFα ([1]; 0.375 mg/kg single i.v., 3.5 h): 6074 pg/g
- Serum Cytokines IFNβ ([1]; 0.375 mg/kg single i.v., 8 h): 263 pg/mL
- Serum Cytokines IL-6 ([1]; 0.375 mg/kg single i.v., 8 h): 1201 pg/mL
- Serum Cytokines TNFα ([1]; 0.375 mg/kg single i.v., 8 h): 160 pg/mL
- Tumor Cytokines IFNβ ([1]; 0.375 mg/kg single i.v., 8 h): 1723 pg/g
- Tumor Cytokines IL-6 ([1]; 0.375 mg/kg single i.v., 8 h): 2715 pg/g
- Tumor Cytokines TNFα ([1]; 0.375 mg/kg single i.v., 8 h): 617 pg/g
- Serum Cytokines IFNβ ([1]; 0.375 mg/kg single i.v., 12 h): 14 pg/mL
- Serum Cytokines IL-6 ([1]; 0.375 mg/kg single i.v., 12 h): 372 pg/mL
- Serum Cytokines TNFα ([1]; 0.375 mg/kg single i.v., 12 h): 50 pg/mL
- Tumor Cytokines IFNβ ([1]; 0.375 mg/kg single i.v., 12 h): 323 pg/g
- Tumor Cytokines IL-6 ([1]; 0.375 mg/kg single i.v., 12 h): 2794 pg/g
- Tumor Cytokines TNFα ([1]; 0.375 mg/kg single i.v., 12 h): 298 pg/g
- cytokine levels over time ([1]; CT26 tumor-bearing mice, single i.v. dose): sustained cytokine levels
- % CD3^+CD8^+ T cells (CD3^+CD8^+ T cells; infiltration in tumor, 96 h post treatment, 0.375 mg/kg single i.v.): 11.2 ± 0.2%
- % CD3^+CD8^+ T cells infiltrating the tumor as compared to the vehicle-treated group (CD3^+CD8^+ T cells; single i.v. dose of 0.375 mg/kg, 96 h post treatment initiation, sodium salt, 0.375 mg/kg): higher percentage of T cell infiltration over that of vehicle control; also recorded: increase
- EC50 (Human STING): 1 to 10 nM
- solubility at 24 h [2]: 3.57 mM

SMILES: CCn1nc(C)cc1C(=O)Nc1nc2cc(C(N)=O)cc3c2n1C/C=C/Cn1c(NC(=O)c2cc(C)nn2CC)nc2cc(C(=O)N[C@H]4CC[C@H](C(=O)O)CC4)cc(c21)OC[C@@H](N1C2CCC1COC2)CO3 [Compound 14, (1S,4R)-4-((8S,E)-8-(3-oxa-8-azabicyclo[3.2.1]octan-8-yl)-12-carbamoyl-1,15-bis(1-ethyl-3-methyl-1H-pyrazole-5-carboxamido)-8,9,16,19-tetrahydro-7H-6,10-dioxa-2,14,15a,19a-tetraazacyclopentadeca[3,2,1-cd:8,9,10-c′d′]diindene-4-carboxamido)cyclohexane-1-carboxylic acid sodium salt]
- Serum IFNβ [1, 3]: 768 ± 330.8 pg/mL
- Tumor IFNβ [1, 3]: 2433 ± 653.8 pg/g tumor
- Serum IFNβ [1, 4]: 415 ± 8.7 pg/mL
- Tumor IFNβ [1, 4]: 2137 ± 261.8 pg/g tumor
- Serum IFNβ [1, 5]: 5 ± 5 pg/mL
- Tumor IFNβ [1, 5]: 752 ± 126.6 pg/g tumor
- Serum IFNβ [1, 6]: BLQ
- Tumor IFNβ [1, 6]: 380 ± 239 pg/g tumor
- EC50 (Human STING): 1 to 10 nM
- solubility at 24 h [2]: 6.8 mM
